In patent US10766879B2, “Pyrimidine derivatives as kinase inhibitors and their therapeutical applications” (NantBioScience, Inc., priority 2015, dated 2020) one finds GI50, EC50 and inhibition data, which are given here for 13 molecules.

One test has as its system KG1a. Nature of the test: CellTiterblue viability, 72 hr, KG1a. In kind it is cell-based. The note with it: Homo sapiens, KG-1a, KG1a cells. How it is done: (§1) A number of studies were performed to analyze the consequences of tyrosine kinase inhibition in cell lines. To do this, 1000 cells are seeded in 27 μl/well in 384-well microplates, which are then placed in a humidified CO2 incubator at 37° C. overnight. The next day, 3 μl/well of 10× concentrated drug is added and the plates are returned to the incubator for 72 hr. After 72 hr incubation, plates are removed and […] CellTiterblue (Promega) viability reagent is added. Plates are returned to the incubator for 3 hr, after which it is fluorescence measurements are read on the Victor X3 plate reader (Perkin Elmer). Data are analyzed using Excel (Microsoft), and GI50 values are determined using Prism (Graphpad).

A further test has as its system RT112. Nature of the test: CellTiterblue viability, 72 hr, RT112. In kind it is cell-based. To be noted: Homo sapiens, RT-112, RT112 cells. How it is done:
as §1

In the next test the target is T1, phospho-FGFR2 (Homo sapiens, UniProt P21802).
T1 construct: endogenous in cells; host or cells: Kato III cells
Put plainly: phospho-FGFR ELISA on Kato III cells. In kind it is cell-based. To be noted: read-out: EC50 (nM) P-FGFR2, Kato III cells. How it is done: For the phospho-FGFR, the following assay Protocol was used. 25,000 cells are seeded in 90 μl/well in 96-well microplates, which are then placed in a humidified CO2 incubator at 37° C. overnight. 96-well ELISA plates (Mesoscale Discovery) are coated with capture antibody (R&D Systems Duo-Set) at 4 μg/ml, 30 μl/well. The next day, 10 μl/well of 10× concentrated drug is added and the plates are returned to the incubator for […]. ELISA plates are washed using an automated plate washer (BioTek Instruments). After 30 min, cells are inverted and gently tapped to remove excess medium, and immediately placed on ice. 30 μl mPer cell lysis reagent (Thermo Scientific) with protease and phosphatase inhibitors is added/well. After 15 min on ice, lysates are mixed and 30 μl transferred to the ELISA plate. Plates are incubated for 2 hr, washed, and 30 μl/well detection antibody is added. After 1 hr, plates are washed and 30 μl “SulfoTag” (MesoScale Discovery) detection reagent is added. After 1 hr, plates are washed and 150 μl/well read solution is added. Electrochemiluminescence is determined on the Mesoscale Discovery Sector Imager 2000. Data are analyzed using Excel (Microsoft), and EC50 values are determined using Prism (Graphpad).

A further test deals with T2, FGFR1 kinase (Homo sapiens, UniProt P11362).
T2 construct: purchased Millipore (KinaseProfiler Service)
Put plainly: KinaseProfiler kinase inhibition assay, FGFR1. In kind it is biochemical. To be noted: 1 μM compound.

For another test, the target named is T3, KDR kinase (Homo sapiens, UniProt P35968).
T3 construct: purchased Millipore (KinaseProfiler Service)
Put plainly: KinaseProfiler kinase inhibition assay, KDR. The note with it: 1 μM compound. In kind it is biochemical.

The target of the next test is T4, Abl kinase (Homo sapiens, UniProt P00519).
T4 construct: purchased Millipore (KinaseProfiler Service)
Nature of the test: KinaseProfiler kinase inhibition assay, Abl. It is filed as biochemical. To be noted: 1 μM compound.

The target in the next test is T5, c-Src kinase (Homo sapiens, UniProt P12931).
T5 construct: purchased Millipore (KinaseProfiler Service)
Nature of the test: KinaseProfiler kinase inhibition assay, c-Src. In kind it is biochemical. To be noted: 1 μM compound; read-out: % Inhibition @1 μM cSrc.

The target of a further test is T6, Tie2 (Homo sapiens, UniProt Q02763).
T6 construct: purchased Millipore (KinaseProfiler Service)
Put plainly: KinaseProfiler kinase inhibition assay, Tie2. It is filed as biochemical. The note with it: 1 μM compound.

Another test has as its system Kato III. Put plainly: CellTiterblue viability, 72 hr, Kato III. To be noted: Homo sapiens, Kato III cells. It is filed as cell-based. How it is done: as §1
The target of another test is T7, Ret kinase (Homo sapiens, UniProt P07949).
T7 construct: purchased Millipore (KinaseProfiler Service)
Put plainly: KinaseProfiler kinase inhibition assay, Ret. In kind it is biochemical. To be noted: 1 μM compound.

In a further test the target is T8, Alk kinase (Homo sapiens, UniProt Q9UM73).
T8 construct: purchased Millipore (KinaseProfiler Service)
Nature of the test: KinaseProfiler kinase inhibition assay, Alk. In kind it is biochemical. The note with it: 1 μM compound.

The subject of the next test is AN3_CA. Put plainly: CellTiterblue viability, 72 hr, AN3_CA. In kind it is cell-based. To be noted: Homo sapiens, AN3-CA, AN3_CA cells. How it is done:
as §1

Another test deals with MDA-MB134. Put plainly: CellTiterblue viability, 72 hr, MDA-MB134. In kind it is cell-based. The note with it: MDA-MB134 cells. The method, then:
as §1

T4 sequence (P00519 whole entry): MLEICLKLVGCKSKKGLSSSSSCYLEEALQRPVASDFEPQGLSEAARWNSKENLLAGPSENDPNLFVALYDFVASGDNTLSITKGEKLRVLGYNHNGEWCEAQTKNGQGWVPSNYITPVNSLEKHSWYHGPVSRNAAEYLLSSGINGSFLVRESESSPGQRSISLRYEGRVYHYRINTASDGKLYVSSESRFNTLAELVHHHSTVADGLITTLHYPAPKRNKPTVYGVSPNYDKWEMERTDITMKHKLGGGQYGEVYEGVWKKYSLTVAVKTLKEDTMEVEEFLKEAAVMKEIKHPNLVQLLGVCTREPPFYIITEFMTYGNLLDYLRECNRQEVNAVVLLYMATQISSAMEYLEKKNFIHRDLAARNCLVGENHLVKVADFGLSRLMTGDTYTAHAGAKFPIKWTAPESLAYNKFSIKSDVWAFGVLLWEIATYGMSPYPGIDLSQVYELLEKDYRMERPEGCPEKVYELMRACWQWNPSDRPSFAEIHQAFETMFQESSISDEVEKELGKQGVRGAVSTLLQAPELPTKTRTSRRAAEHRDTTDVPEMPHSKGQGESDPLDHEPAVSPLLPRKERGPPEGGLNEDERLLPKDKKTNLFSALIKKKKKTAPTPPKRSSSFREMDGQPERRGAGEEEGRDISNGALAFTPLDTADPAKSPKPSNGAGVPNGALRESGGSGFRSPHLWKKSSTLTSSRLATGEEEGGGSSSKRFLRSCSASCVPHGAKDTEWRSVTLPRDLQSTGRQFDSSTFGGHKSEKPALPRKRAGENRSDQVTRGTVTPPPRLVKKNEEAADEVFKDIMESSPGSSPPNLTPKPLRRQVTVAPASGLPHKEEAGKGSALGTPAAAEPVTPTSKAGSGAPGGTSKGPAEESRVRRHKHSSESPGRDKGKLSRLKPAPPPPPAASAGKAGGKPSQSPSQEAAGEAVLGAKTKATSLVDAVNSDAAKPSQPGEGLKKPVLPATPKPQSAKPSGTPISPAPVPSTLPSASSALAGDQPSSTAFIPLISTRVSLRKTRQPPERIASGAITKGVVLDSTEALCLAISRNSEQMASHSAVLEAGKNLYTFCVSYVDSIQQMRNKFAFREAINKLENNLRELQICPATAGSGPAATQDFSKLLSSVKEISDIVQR
T5 sequence (P12931 whole entry): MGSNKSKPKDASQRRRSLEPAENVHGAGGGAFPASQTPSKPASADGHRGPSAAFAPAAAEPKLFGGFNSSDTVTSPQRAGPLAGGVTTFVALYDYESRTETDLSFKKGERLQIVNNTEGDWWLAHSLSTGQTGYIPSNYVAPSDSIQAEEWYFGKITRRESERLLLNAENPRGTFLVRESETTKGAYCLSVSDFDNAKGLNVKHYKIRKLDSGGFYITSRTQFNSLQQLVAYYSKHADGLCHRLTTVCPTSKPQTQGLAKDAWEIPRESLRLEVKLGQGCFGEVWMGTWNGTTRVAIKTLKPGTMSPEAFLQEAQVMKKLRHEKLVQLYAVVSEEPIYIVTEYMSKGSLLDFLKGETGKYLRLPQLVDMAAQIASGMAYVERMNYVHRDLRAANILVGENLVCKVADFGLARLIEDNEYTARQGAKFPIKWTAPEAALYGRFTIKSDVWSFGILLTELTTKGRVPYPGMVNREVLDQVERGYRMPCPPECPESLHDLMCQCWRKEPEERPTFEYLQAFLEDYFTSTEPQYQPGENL
T3 sequence (P35968 20-1356): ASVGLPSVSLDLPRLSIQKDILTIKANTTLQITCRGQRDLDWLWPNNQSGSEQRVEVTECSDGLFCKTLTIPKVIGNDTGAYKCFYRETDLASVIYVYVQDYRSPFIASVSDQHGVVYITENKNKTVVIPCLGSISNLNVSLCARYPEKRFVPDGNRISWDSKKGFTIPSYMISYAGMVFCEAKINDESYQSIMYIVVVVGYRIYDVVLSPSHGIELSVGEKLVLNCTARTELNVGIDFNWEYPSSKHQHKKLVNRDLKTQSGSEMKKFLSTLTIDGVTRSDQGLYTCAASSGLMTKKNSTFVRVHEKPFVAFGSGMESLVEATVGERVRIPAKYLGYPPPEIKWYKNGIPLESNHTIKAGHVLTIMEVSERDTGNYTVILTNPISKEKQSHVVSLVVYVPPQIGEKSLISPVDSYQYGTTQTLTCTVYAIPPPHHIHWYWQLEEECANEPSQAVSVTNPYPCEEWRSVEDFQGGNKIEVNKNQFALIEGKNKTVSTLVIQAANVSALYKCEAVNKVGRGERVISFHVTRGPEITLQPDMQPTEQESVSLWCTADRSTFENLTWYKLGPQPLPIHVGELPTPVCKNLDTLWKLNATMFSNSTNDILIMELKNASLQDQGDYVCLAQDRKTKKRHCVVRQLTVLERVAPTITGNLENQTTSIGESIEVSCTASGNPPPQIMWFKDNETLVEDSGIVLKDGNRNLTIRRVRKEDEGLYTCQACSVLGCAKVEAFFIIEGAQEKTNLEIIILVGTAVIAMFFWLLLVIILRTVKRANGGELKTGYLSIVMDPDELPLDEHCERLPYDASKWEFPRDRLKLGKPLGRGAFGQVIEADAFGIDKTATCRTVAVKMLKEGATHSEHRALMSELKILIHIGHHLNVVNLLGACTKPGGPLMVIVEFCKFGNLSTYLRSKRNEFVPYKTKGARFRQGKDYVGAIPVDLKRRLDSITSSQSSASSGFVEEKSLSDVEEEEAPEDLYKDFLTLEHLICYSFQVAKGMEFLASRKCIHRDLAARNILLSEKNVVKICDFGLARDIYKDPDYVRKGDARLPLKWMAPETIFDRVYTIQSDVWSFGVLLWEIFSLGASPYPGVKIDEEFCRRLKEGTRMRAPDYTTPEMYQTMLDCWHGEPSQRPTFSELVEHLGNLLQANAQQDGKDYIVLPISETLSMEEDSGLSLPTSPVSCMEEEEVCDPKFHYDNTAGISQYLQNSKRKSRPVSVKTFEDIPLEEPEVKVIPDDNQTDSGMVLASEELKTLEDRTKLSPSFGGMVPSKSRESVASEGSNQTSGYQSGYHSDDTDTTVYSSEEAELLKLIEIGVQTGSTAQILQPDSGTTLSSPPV
T7 sequence (P07949 29-1114): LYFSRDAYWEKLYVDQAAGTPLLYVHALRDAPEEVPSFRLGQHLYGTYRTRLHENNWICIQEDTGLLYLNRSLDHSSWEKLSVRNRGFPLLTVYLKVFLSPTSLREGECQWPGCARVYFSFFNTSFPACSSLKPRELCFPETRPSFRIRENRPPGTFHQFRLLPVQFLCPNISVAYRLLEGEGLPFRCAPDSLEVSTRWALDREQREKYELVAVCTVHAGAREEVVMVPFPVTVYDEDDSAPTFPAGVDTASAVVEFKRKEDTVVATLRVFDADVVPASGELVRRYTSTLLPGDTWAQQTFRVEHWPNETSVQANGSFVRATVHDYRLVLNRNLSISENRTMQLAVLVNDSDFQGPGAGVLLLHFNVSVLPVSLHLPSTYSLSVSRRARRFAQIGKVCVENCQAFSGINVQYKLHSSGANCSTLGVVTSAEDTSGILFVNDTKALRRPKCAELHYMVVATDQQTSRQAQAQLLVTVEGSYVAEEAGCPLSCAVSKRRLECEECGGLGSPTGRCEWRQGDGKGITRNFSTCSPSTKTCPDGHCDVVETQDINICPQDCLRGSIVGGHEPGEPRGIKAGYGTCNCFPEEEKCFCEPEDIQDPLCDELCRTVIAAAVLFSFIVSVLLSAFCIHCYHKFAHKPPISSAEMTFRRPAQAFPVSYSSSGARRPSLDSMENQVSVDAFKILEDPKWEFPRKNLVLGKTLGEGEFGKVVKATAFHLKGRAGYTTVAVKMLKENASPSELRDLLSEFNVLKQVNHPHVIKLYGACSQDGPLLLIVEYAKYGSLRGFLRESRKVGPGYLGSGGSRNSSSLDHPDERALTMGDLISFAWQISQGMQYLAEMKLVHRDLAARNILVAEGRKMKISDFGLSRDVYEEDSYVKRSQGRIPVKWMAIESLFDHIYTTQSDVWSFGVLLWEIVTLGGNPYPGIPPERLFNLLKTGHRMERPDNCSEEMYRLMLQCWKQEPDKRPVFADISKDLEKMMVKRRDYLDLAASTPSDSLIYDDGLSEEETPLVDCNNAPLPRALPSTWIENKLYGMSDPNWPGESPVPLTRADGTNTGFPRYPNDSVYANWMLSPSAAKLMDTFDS
T2 sequence (P11362 22-822): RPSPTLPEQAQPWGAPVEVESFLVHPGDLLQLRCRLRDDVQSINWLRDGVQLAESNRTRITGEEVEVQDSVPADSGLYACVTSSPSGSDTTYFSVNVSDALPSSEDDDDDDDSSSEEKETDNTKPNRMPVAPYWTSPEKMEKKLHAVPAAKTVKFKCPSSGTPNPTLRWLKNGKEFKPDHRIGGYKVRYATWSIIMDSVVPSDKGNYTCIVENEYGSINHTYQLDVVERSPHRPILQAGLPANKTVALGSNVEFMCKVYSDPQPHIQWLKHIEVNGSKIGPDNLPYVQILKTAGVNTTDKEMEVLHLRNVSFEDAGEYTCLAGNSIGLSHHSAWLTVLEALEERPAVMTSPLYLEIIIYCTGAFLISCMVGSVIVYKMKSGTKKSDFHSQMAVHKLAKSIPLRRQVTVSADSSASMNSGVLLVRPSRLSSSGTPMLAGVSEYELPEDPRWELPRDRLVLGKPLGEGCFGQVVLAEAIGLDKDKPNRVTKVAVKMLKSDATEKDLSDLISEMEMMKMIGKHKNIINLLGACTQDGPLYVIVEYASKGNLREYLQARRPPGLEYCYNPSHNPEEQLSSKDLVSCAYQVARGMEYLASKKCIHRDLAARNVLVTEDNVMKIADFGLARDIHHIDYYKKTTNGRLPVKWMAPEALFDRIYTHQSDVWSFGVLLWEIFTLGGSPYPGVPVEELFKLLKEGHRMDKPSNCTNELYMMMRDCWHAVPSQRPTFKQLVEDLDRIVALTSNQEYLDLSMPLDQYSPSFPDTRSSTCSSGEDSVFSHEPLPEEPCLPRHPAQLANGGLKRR

On to `Cc1cc2c(F)c(Oc3cc(Nc4ccc(N5CCNCC5)cc4)ncn3)ccc2[nH]1` [Example 11], for which the 50% growth inhibitory concentration (GI50) in the test on KG1a was > 100 nM; in the test on RT112, > 100 nM; in the test on Kato III, > 500 nM; in the test with AN3_CA, > 500 nM. Also, the EC50 on phospho-FGFR2 came out at 96 nM. Moreover, the inhibition at 1 µM against FGFR1 kinase amounted to 99%; on KDR kinase, 96%; on Abl kinase it was 60%; at c-Src kinase, 59%; on Tie2, 92%; against Ret kinase, 67%. Besides, the inhibition at 1 µM at Alk kinase was found to be 70%.

In the case of `Cc1cc2c(F)c(Oc3cc(Nc4cc(-c5ccco5)[nH]n4)ncn3)ccc2[nH]1` [Example 20], the concentration for 50% growth inhibition (GI50) with KG1a was > 100 nM; in the test with RT112 it was > 100 nM; with AN3_CA, > 500 nM. Further, the half-maximal effective concentration (EC50) at phospho-FGFR2 is > 100 nM. The inhibition at 1 µM is 92% against FGFR1 kinase; 88% against KDR kinase; 36% against Abl kinase; 24% at c-Src kinase; 47% against Tie2; 78% on Ret kinase. Further, the inhibition at 1 µM against Alk kinase was 3%.

Consider `Cc1cc2c(F)c(Oc3cc(Nc4cc(C5CC5)[nH]n4)ncn3)ccc2[nH]1` [Example 16], for which the GI50 in the test with KG1a was > 100 nM; in the test with RT112 it was > 100 nM; with AN3_CA it was > 500 nM. Besides, on phospho-FGFR2, the EC50 was > 100 nM. Besides, the inhibition at 1 µM was determined as 92% at FGFR1 kinase; 90% against KDR kinase; 64% against Abl kinase; 54% on c-Src kinase; 75% at Tie2; 79% against Ret kinase. Further, the inhibition at 1 µM on Alk kinase came to 2%.

`C/C=C/c1cc(Nc2cc(Oc3ccc4[nH]c(C)cc4c3F)ncn2)n[nH]1` [Example 17]: the GI50 in the test on KG1a was > 100 nM; in the test with RT112, > 100 nM; in the test with AN3_CA, > 500 nM. The EC50 at phospho-FGFR2 is > 100 nM. The inhibition at 1 µM amounted to 95% against FGFR1 kinase; 90% on KDR kinase; 42% on Abl kinase; 21% on c-Src kinase; 37% against Tie2; 73% on Ret kinase. The inhibition at 1 µM against Alk kinase is 2%.

Consider `CCN1CCN(c2ccc(Nc3ncnc(Oc4cc(F)c5[nH]c(C)cc5c4F)c3C#N)cc2)CC1` [Compound 60], for which the concentration for 50% growth inhibition (GI50) with KG1a is 5 nM; with RT112, 47 nM; in the test with MDA-MB134, 18 nM; with Kato III, 26 nM; in the test with AN3_CA it was > 500 nM. The inhibition at 1 µM at FGFR1 kinase was 100%; on KDR kinase it was 93%; against Abl kinase it was -7%; on c-Src kinase, 3%; against Tie2 it was 24%; at Ret kinase, -42%. Moreover, on Alk kinase, the inhibition at 1 µM was 3%.

`CCN1CCN(c2ccc(Nc3cc(Oc4ccc5[nH]c(C)cc5c4F)ncn3)cc2)CC1` [Example 3]: the 50% growth inhibitory concentration (GI50) with KG1a is > 100 nM; with RT112 it was > 100 nM; in the test on AN3_CA, > 500 nM. Besides, the concentration giving a half-maximal response (EC50) on phospho-FGFR2 was 93 nM. In addition, the inhibition at 1 µM on FGFR1 kinase amounted to 102%; at KDR kinase, 97%; against Abl kinase, 47%; on c-Src kinase it was 46%; against Tie2, 61%; against Ret kinase, 75%. The inhibition at 1 µM against Alk kinase was -2%.

Consider `Cc1cc2c(F)c(Oc3ncnc(Nc4ccc(N5CCN(C)CC5)cc4)c3Cl)ccc2[nH]1` [Compound 35, 5-chloro-6-((4-fluoro-2-methyl-1H-indol-5-yl)oxy)-N-(4-(4-methylpiperazin-1-yl)phenyl)pyrimidin-4-amine], for which the 50% growth inhibitory concentration (GI50) in the test with KG1a, in the test with RT112, in the test with MDA-MB134, in the test on Kato III and in the test with AN3_CA was > 500 nM in each case. Further, the inhibition at 1 µM is 96% against FGFR1 kinase; 20% against KDR kinase; -15% against Abl kinase; 2% at c-Src kinase; 19% against Tie2; -22% against Ret kinase. The inhibition at 1 µM at Alk kinase is -43%.

Take `CCN1CCN(c2ccc(Nc3ncnc(Oc4cc(F)c5[nH]c(C)cc5c4F)c3C#N)nc2)CC1` [Compound 61]: the concentration for 50% growth inhibition (GI50) with KG1a is 4 nM; in the test on RT112 it was 11 nM; in the test with MDA-MB134 it was 28 nM; in the test on Kato III, 77 nM; in the test on AN3_CA it was > 500 nM. For the same molecule, the inhibition at 1 µM was 100% at FGFR1 kinase; 51% against KDR kinase; 3% against Abl kinase; -9% at c-Src kinase; 23% against Tie2; -13% against Ret kinase. At Alk kinase, the inhibition at 1 µM is -41%.

Turning to `Cc1cc2c(F)c(Oc3ncnc(Nc4ccc(N5CCNCC5)cc4)c3C#N)ccc2[nH]1` [Compound 57], the GI50 with KG1a is 4 nM; in the test with RT112 it was 33 nM; in the test with MDA-MB134 it was 8 nM; in the test with Kato III it was 51 nM; in the test with AN3_CA, > 500 nM. Further, the inhibition at 1 µM is 99% against FGFR1 kinase; 94% at KDR kinase; -6% at Abl kinase; 12% at c-Src kinase; 30% at Tie2; -26% against Ret kinase. Besides, the inhibition at 1 µM at Alk kinase was -40%.

On to `COc1c(Nc2ccc(N3CCN(C)CC3)cc2)ncnc1Oc1ccc2[nH]c(C)cc2c1F` [Compound 43], for which the GI50 in the test with KG1a, with RT112, with MDA-MB134, with Kato III and with AN3_CA was > 500 nM each time. The inhibition at 1 µM on FGFR1 kinase was 48%; on KDR kinase, -7%; against Abl kinase, -10%; on c-Src kinase it was -4%; on Tie2, 21%; at Ret kinase, -28%. Further, the inhibition at 1 µM at Alk kinase was -32%.

Regarding `COc1c(Nc2ccc(N3CCN(C)CC3)cn2)ncnc1Oc1ccc2[nH]c(C)cc2c1F` [Compound 44], the GI50 with KG1a, in the test with RT112, in the test on MDA-MB134, with Kato III and in the test on AN3_CA was > 500 nM throughout. For the same molecule, the inhibition at 1 µM against FGFR1 kinase was 16%; against KDR kinase, -1%; against Abl kinase it was -6%; on c-Src kinase, -11%; at Tie2, 11%; against Ret kinase, -12%. Moreover, the inhibition at 1 µM on Alk kinase is -18%.

For the molecule `Cc1cc2c(F)c(Oc3ncnc(Nc4ccc(N5CCN(C)CC5)cn4)c3C)ccc2[nH]1` [Compound 41], the GI50 was > 500 nM in the test on KG1a; > 500 nM in the test with RT112; 241 nM in the test with MDA-MB134; > 500 nM in the test with Kato III; > 500 nM with AN3_CA. Besides, the inhibition at 1 µM at FGFR1 kinase is 41%; on KDR kinase, 5%; at Abl kinase, 2%; at c-Src kinase, 8%; at Tie2, 12%; on Ret kinase, -35%. For the same molecule, at Alk kinase, the inhibition at 1 µM was -41%.

As to `CCN1CCN(c2ccc(Nc3ncnc(Oc4ccc5[nH]c(C)cc5c4F)c3C#N)nc2)CC1` [Compound 55], the concentration for 50% growth inhibition (GI50) was 7 nM in the test on KG1a; > 500 nM with RT112; 78 nM with MDA-MB134; 319 nM in the test with Kato III; 98 nM in the test on AN3_CA. In addition, the inhibition at 1 µM at FGFR1 kinase is 99%; against KDR kinase it was 91%; against Abl kinase, 2%; at c-Src kinase, 10%; at Tie2 it was 31%; against Ret kinase it was -48%. On Alk kinase, the inhibition at 1 µM was -23%.
